Where a SMILES comes first, the peptide text is derived from it. [ ]: non-standard residue; d: D form. The star is where a group is joined. ξ: configuration not given here. Doxorubicin(3'-N) = COc1cccc2c1C(=O)c1c(O)c3c(c(O)c1C2=O)C[C@@](O)(C(=O)CO)C[C@@H]3O[C@H]1C[C@H](N*)[C@H](O)[C@H](C)O1; X2 = CC(C)(C)c1nc(-c2cccc(NS(=O)(=O)c3c(F)cccc3F)c2F)c(-c2ccnc(N*)n2)s1; Thyronine(3,5,3'-I3) = N[C@@H](Cc1cc(I)c(Oc2ccc(O)c(I)c2)c(I)c1)C(=O)O; Mal(CH2CH2O)6CH2CH2CO = O=C1C=CC(=O)N1CCOCCOCCOCCOCCOCCOCCC(=O)*; MaleimidoPEG4propanoyl = O=C1C=CC(=O)N1CCOCCOCCOCCOCCC(=O)*; Hexanoyl(6-maleimido) = O=C1C=CC(=O)N1CCCCCC(=O)*; Propanoyl(3-maleimido) = O=C1C=CC(=O)N1CCC(=O)*; PEG6 = NCCOCCOCCOCCOCCOCCOCCC(=O)O; X3 = O=C1C=CC(=O)N1CCOCCOCCC(=O)*; PEG4 = NCCOCCOCCOCCOCCC(=O)O; PEG3 = NCCOCCOCCOCCC(=O)O; PEG2 = NCCOCCOCCC(=O)O; ξL = CC(C)CC(N)C(=O)O
Tests used:
[1] = tested on: Human hepatoma HepG2 cells; experiment: Human liver cancer HepG2 tumors in nude mice; format: in vivo; conditions: for Tumor volume (mm^3) Day 28: 54 umol/kg IV once a week for 4 weeks; for inhibition in vivo at 54 µmol/kg: Mus musculus, HepG2, iv, 672 h, read-out: Tumor inhibition rate (%) Day 28
Description: • 1. Animals: nude mice aged 6-8 weeks, all female. • 2. Preparation of tumor models
Human hepatoma HepG2 cells were purchased from ATCC and identified according to the instructions provided. […] Randomization was performed when the tumor size reached 100 mm^3.
Treatment was then initiated, and the day of initiation of treatment was counted as Day 1. • 3) Treatment process
According to the clinical application of the corresponding compound, the drug was administered intravenously (IV). The compound and the control drug were administered at a dose of 54 umol/kg, and DOX could only be administered at a dose of 18 umol/kg due to toxicity limitations.

[2] = Water solubility test (observation and HPLC); format: physicochemical; conditions: thermodynamic from solid
Description: The compounds prepared in accordance with the examples of the disclosure and the reference compounds C1, C2, C3 and C4 were lyophilized (−70° C.).

CT26 tumor = CT26 tumor immune model, tumor suppression and CD8+ T cell analysis; format: in vivo, BALB/c mice; conditions: for CD8:CD45 (%): CD8-positive among CD45-positive cells in tumor, flow cytometry; for Tumor inhibition rate (%) Day 28 / Tumor volume (mm^3) Day 28: drug 36 umol/kg once a week for three weeks, PD-1 antibody 5 mg/kg
Description: • 1) CT26 cells were purchased from ATCC. […] The corresponding 5×10^6 cells were injected subcutaneously into the back of […] mice. After the size of tumors reached at least 100 mm^3, the mice were randomized into groups. Treatment was then initiated, with the day of treatment initiation being Day 1. • 3) The course of treatment. The drug was administered at an equimolar dose of 36 umol/kg. The control group was given normal saline. The drug was administered once a week for three week. • 4) Tumor CD8+ T cell analysis. Tumor tissue was homogenized, individual cells in the tumor were filtered, dissociated and washed twice with buffer, and then incubated with leukocyte common antigen CD45-PE and CD8-FITC-labeled antibodies for 1 hour at room temperature. The cells were washed twice with phosphate buffered saline containing 1% fetal bovine serum, and then the proportion of T lymphocyte antigen (CD8)-positive cells in leukocyte common antigen (CD45)-positive cells was analyzed by flow cytometry. An increase in the ratio indicates an increase in T lymphocytes and therefore an improvement in the immunity of the animal to the tumor. • 5) The grouping and test results are shown in Table 7.

NAFLD model mice = experiment: Nonalcoholic fatty liver disease (NAFLD) model mice, serum HDL-C and LDL-C; format: in vivo; conditions: NAFLD (high-fat diet) C57 mice, IV twice a week for 8 weeks, 12 hour after last administration, normal group 100%; for Change from normal group HDL-C: serum HDL-C; for Change from normal group LDL-C: serum LDL-C
Description: • Methods: C57 mice were randomly divided into normal group (standard diet), model group (high-fat diet), simvastatin group (positive control, 3 mg/kg) and drug group (50 mg/kg), with 6 mice in each group. The normal group was fed with standard diet, and the other groups were fed with high-fat diet to induce NAFLD model. At the same time of modeling, the mice in each group were given the corresponding dose of 48 umol/kg medicine IV twice a week for 8 weeks in total. 12 hour after the last administration, the serum biochemical indicators were determined by automatic biochemical analyzer: High density lipoprotein cholesterol (HDL-C), and low density lipoprotein (LDL-C).

SMILES	inhibition in vivo at 54 µmol/kg [1] [%]	solubility [2] [µg/mL]	Change from normal group HDL-C (NAFLD model mice) [%]	Change from normal group LDL-C (NAFLD model mice) [%]	other results
COc1cccc2c1C(=O)c1c(O)c3c(c(O)c1C2=O)C[C@@](O)(C(=O)CO)C[C@@H]3O[C@H]1C[C@H](NC(=O)[C@H](CC(C)C)NC(=O)[C@H](CC(N)=O)NC(=O)[C@H](C)NC(=O)[C@H](C)NC(=O)CCOCCOCCN2C(=O)C=CC2=O)[C@H](O)[C@H](C)O1 [QHL-009-DOX] (X3-AANL-{Doxorubicin(3'-N)})	100				Tumor volume (mm^3) Day 28 [1]: 0 mm^3
COc1cccc2c1C(=O)c1c(O)c3c(c(O)c1C2=O)C[C@@](O)(C(=O)CO)C[C@@H]3O[C@H]1C[C@H](NC(=O)[C@H](CC(C)C)NC(=O)[C@H](CC(N)=O)NC(=O)[C@H](C)NC(=O)[C@H](C)NC(=O)CCOCCOCCOCCOCCN2C(=O)C=CC2=O)[C@H](O)[C@H](C)O1 [QHL-011-DOX] (MaleimidoPEG4propanoyl-AANL-{Doxorubicin(3'-N)})	96.6				Tumor volume (mm^3) Day 28 [1]: 98.1 ± 48.4 mm^3
COc1cccc2c1C(=O)c1c(O)c3c(c(O)c1C2=O)C[C@@](O)(C(=O)CO)C[C@@H]3O[C@H]1C[C@H](NC(=O)[C@H](CC(C)C)NC(=O)[C@H](CC(N)=O)NC(=O)[C@H](C)NC(=O)[C@H](C)NC(=O)CCOCCOCCOCCOCCOCCOCCN2C(=O)C=CC2=O)[C@H](O)[C@H](C)O1 [QHL-012-DOX] ({Mal(CH2CH2O)6CH2CH2CO}-AANL-{Doxorubicin(3'-N)})	93.2				Tumor volume (mm^3) Day 28 [1]: 197.4 ± 104.5 mm^3
CC(C)CC(NC(=O)[C@@H](CC(N)=O)NC(=O)[C@@H](C)NC(=O)[C@@H](C)NC(=O)CCOCCOCCNC(=O)CCN1C(=O)C=CC1=O)C(=O)Nc1nccc(-c2sc(C(C)(C)C)nc2-c2cccc(NS(=O)(=O)c3c(F)cccc3F)c2F)n1 (stereo partly drawn) [QHL-087-dabrafenib] ({Propanoyl(3-maleimido)-PEG2}-[dA][dA][dN][ξL]-X2)		> 10000			CD8:CD45 (%) (CT26 tumor): 6.4%; Tumor inhibition rate (%) Day 28 (CT26 tumor): 64.0%; Tumor volume (mm^3) Day 28 (CT26 tumor): 678.4 ± 348.7 mm^3
COc1cccc2c1C(=O)c1c(O)c3c(c(O)c1C2=O)C[C@@](O)(C(=O)CO)C[C@@H]3O[C@H]1C[C@H](NC(=O)[C@H](CC(C)C)NC(=O)[C@H](CC(N)=O)NC(=O)[C@H](C)NC(=O)[C@H](C)NC(=O)CCOCCOCCOCCNC(=O)CCN2C(=O)C=CC2=O)[C@H](O)[C@H](C)O1 [QHL-090-DOX]	100				
CC(C)CC(NC(=O)[C@@H](CC(N)=O)NC(=O)[C@@H](C)NC(=O)[C@@H](C)NC(=O)CCOCCOCCOCCNC(=O)CCN1C(=O)C=CC1=O)C(=O)Nc1nccc(-c2sc(C(C)(C)C)nc2-c2cccc(NS(=O)(=O)c3c(F)cccc3F)c2F)n1 (stereo partly drawn) [QHL-090-dabrafenib] ({Propanoyl(3-maleimido)-PEG3}-[dA][dA][dN][ξL]-X2)		> 10000			CD8:CD45 (%) (CT26 tumor): 7.4%; therapeutic effect combined with PD-1, in words (CT26 tumor; combined with PD-1 versus single drug): a certain synergistic effect; Tumor inhibition rate (%) Day 28 (CT26 tumor): 68.7%; Tumor volume (mm^3) Day 28 (CT26 tumor): 589.7 ± 247.4 mm^3
COc1cccc2c1C(=O)c1c(O)c3c(c(O)c1C2=O)C[C@@](O)(C(=O)CO)C[C@@H]3O[C@H]1C[C@H](NC(=O)[C@H](CC(C)C)NC(=O)[C@H](CC(N)=O)NC(=O)[C@H](C)NC(=O)[C@H](C)NC(=O)CCOCCOCCOCCOCCNC(=O)CCN2C(=O)C=CC2=O)[C@H](O)[C@H](C)O1 [QHL-093-DOX] ({Propanoyl(3-maleimido)-PEG4}-AANL-{Doxorubicin(3'-N)})	94.2				
COc1cccc2c1C(=O)c1c(O)c3c(c(O)c1C2=O)C[C@@](O)(C(=O)CO)C[C@@H]3O[C@H]1C[C@H](NC(=O)[C@H](CC(C)C)NC(=O)[C@H](CC(N)=O)NC(=O)[C@H](C)NC(=O)[C@H](C)NC(=O)CCOCCOCCOCCOCCOCCOCCNC(=O)CCN2C(=O)C=CC2=O)[C@H](O)[C@H](C)O1 [QHL-096-DOX] ({Propanoyl(3-maleimido)-PEG6}-AANL-{Doxorubicin(3'-N)})	100				
COc1cccc2c1C(=O)c1c(O)c3c(c(O)c1C2=O)C[C@@](O)(C(=O)CO)C[C@@H]3O[C@H]1C[C@H](NC(=O)[C@H](CC(C)C)NC(=O)[C@H](CC(N)=O)NC(=O)[C@H](C)NC(=O)[C@H](C)NC(=O)[C@H](CC(=O)O)NC(=O)CCCCCN2C(=O)C=CC2=O)[C@H](O)[C@H](C)O1 [QHL-120-DOX] ({Hexanoyl(6-maleimido)}-DAANL-{Doxorubicin(3'-N)})	92.8				
CCOCc1nc2c(NC(=O)OCc3ccc(NC(=O)[C@H](CC(N)=O)NC(=O)[C@H](C)NC(=O)[C@H](C)NC(=O)CCCCCN4C(=O)C=CC4=O)cc3)nc3ccccc3c2n1CC(C)(C)O [QHL-140-resiquimod]					CD8:CD45 (%) (CT26 tumor): 15.4%; Tumor inhibition rate (%) Day 28 (CT26 tumor): 81.9%; Tumor volume (mm^3) Day 28 (CT26 tumor): 342.8 ± 112.9 mm^3
C[C@H](NC(=O)CCCCCN1C(=O)C=CC1=O)C(=O)N[C@@H](C)C(=O)N[C@@H](CC(N)=O)C(=O)N[C@@H](Cc1cc(I)c(Oc2ccc(O)c(I)c2)c(I)c1)C(=O)O [QHL-150-T3] ({Hexanoyl(6-maleimido)}-AAN[Thyronine(3,5,3'-I3)]-OH)		> 10000	86.8	119.32	
C[C@H](NC(=O)CCOCCOCCNC(=O)CCN1C(=O)C=CC1=O)C(=O)N[C@@H](C)C(=O)N[C@@H](CC(N)=O)C(=O)N[C@@H](Cc1cc(I)c(Oc2ccc(O)c(I)c2)c(I)c1)C(=O)O [QHL-157-T3] ({Propanoyl(3-maleimido)-PEG2}-AAN[Thyronine(3,5,3'-I3)]-OH)		> 10000	94.8	110.7	
C[C@H](NC(=O)CCOCCOCCOCCNC(=O)CCN1C(=O)C=CC1=O)C(=O)N[C@@H](C)C(=O)N[C@H](CC(N)=O)C(=O)N[C@@H](Cc1cc(I)c(Oc2ccc(O)c(I)c2)c(I)c1)C(=O)O [QHL-158-T3] ({Propanoyl(3-maleimido)-PEG3}-AA[dN][Thyronine(3,5,3'-I3)]-OH)		> 10000	91.9	103.6	
C[C@H](NC(=O)CCOCCOCCOCCOCCNC(=O)CCN1C(=O)C=CC1=O)C(=O)N[C@@H](C)C(=O)N[C@@H](CC(N)=O)C(=O)N[C@@H](Cc1cc(I)c(Oc2ccc(O)c(I)c2)c(I)c1)C(=O)O [QHL-159-T3] ({Propanoyl(3-maleimido)-PEG4}-AAN[Thyronine(3,5,3'-I3)]-OH)		> 10000	97.7	105.3	
C[C@H](NC(=O)CCOCCOCCOCCOCCOCCOCCNC(=O)CCN1C(=O)C=CC1=O)C(=O)N[C@@H](C)C(=O)N[C@H](CC(N)=O)C(=O)N[C@@H](Cc1cc(I)c(Oc2ccc(O)c(I)c2)c(I)c1)C(=O)O [QHL-160-T3] ({Propanoyl(3-maleimido)-PEG6}-AA[dN][Thyronine(3,5,3'-I3)]-OH)		> 10000	89.4	117.5	
CCC(C)(C)C(=O)O[C@H]1C[C@@H](C)C=C2C=C[C@H](C)[C@H](CC[C@@H]3C[C@@H](O)CC(=O)O3)[C@H]21 [simvastatin, reference compound]			86.3	118.3	
